Measurements taken from the supplement of paper PMC13207355.

How the values were obtained:
Conditions in all cases: exposure time: 72 h
FT3469 [1] = normal neural stem cell line; experiment: phenotypic distance (Euclidean, principal components) from DMSO controls (arbitrary units); higher = stronger morphological change
E31 [2] = patient-derived glioblastoma stem cells of proneural subtype; experiment: as above
E13 [3] = patient-derived glioblastoma stem cells of classical subtype; experiment: as above
E34 [4] = patient-derived glioblastoma stem cells of proneural subtype; experiment: as above
E21 [5] = patient-derived glioblastoma stem cells of mesenchymal subtype; experiment: as above
E28 [6] = patient-derived glioblastoma stem cells of classical subtype; experiment: as above
E57 [7] = patient-derived glioblastoma stem cells of mesenchymal subtype; experiment: as above
FT3469 [8] = experiment: surviving fraction (nuclei count normalised to DMSO); higher = more cells surviving (less toxic)
E31 [9] = experiment: as above
E13 [10] = experiment: as above
E34 [11] = experiment: as above
E21 [12] = experiment: as above
E28 [13] = experiment: as above
E57 [14] = experiment: as above
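Throughout, for phenotypic distance (Euclidean, principal components) from DMSO controls: cell Painting imaging in 384-well plates, CellProfiler features reduced to at least 20 principal components, Euclidean distance versus same-plate DMSO vehicle wells (0.1% v/v), median over six images per well.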
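Throughout, for surviving fraction (nuclei count normalised to DMSO): nuclei counted by high-content imaging of Hoechst-stained cells in laminin-coated 384-well plates, relative to 0.1% DMSO vehicle wells, with staurosporine as cell-death control.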

C[C@H](Cc1cc2c(c(C(N)=O)c1)N(CCCO)CC2)NCCOc1ccccc1OCC(F)(F)F [Silodosin]
phenotypic distance (FT3469 [1]; 4.1 nM): 1.28
phenotypic distance (FT3469 [1]; 12.3 nM): 0.608
phenotypic distance (FT3469 [1]; 37 nM): 0.869
phenotypic distance (FT3469 [1]; 111.1 nM): 0.648
phenotypic distance (FT3469 [1]; 333.3 nM): 1.02
phenotypic distance (FT3469 [1]; 1000 nM): 0.845
phenotypic distance (FT3469 [1]; 3000 nM): 1.05
phenotypic distance (E31 [2]; 4.1 nM): 0.63
phenotypic distance (E31 [2]; 12.3 nM): 0.581
phenotypic distance (E31 [2]; 37 nM): 1.01
phenotypic distance (E31 [2]; 111.1 nM): 0.959
phenotypic distance (E31 [2]; 333.3 nM): 0.426
phenotypic distance (E31 [2]; 1000 nM): 0.534
phenotypic distance (E31 [2]; 3000 nM): 1.14
phenotypic distance (E13 [3]; 4.1 nM): 0.445
phenotypic distance (E13 [3]; 12.3 nM): 0.872
phenotypic distance (E13 [3]; 37 nM): 0.863
phenotypic distance (E13 [3]; 111.1 nM): 0.966
phenotypic distance (E13 [3]; 333.3 nM): 0.915
phenotypic distance (E13 [3]; 1000 nM): 0.684
phenotypic distance (E13 [3]; 3000 nM): 0.641
phenotypic distance (E34 [4]; 4.1 nM): 1.06
phenotypic distance (E34 [4]; 12.3 nM): 0.76
phenotypic distance (E34 [4]; 37 nM): 0.492
phenotypic distance (E34 [4]; 111.1 nM): 2.26
phenotypic distance (E34 [4]; 333.3 nM): 0.348
phenotypic distance (E34 [4]; 1000 nM): 1.18
phenotypic distance (E34 [4]; 3000 nM): 1.12
phenotypic distance (E21 [5]; 4.1 nM): 2.39
phenotypic distance (E21 [5]; 12.3 nM): 1.7
phenotypic distance (E21 [5]; 37 nM): 1.04
phenotypic distance (E21 [5]; 111.1 nM): 0.791
phenotypic distance (E21 [5]; 333.3 nM): 0.998
phenotypic distance (E21 [5]; 1000 nM): 0.539
phenotypic distance (E21 [5]; 3000 nM): 1.04
phenotypic distance (E28 [6]; 4.1 nM): 0.716
phenotypic distance (E28 [6]; 12.3 nM): 0.594
phenotypic distance (E28 [6]; 37 nM): 0.634
phenotypic distance (E28 [6]; 111.1 nM): 0.795
phenotypic distance (E28 [6]; 333.3 nM): 0.798
phenotypic distance (E28 [6]; 1000 nM): 0.495
phenotypic distance (E28 [6]; 3000 nM): 0.823
phenotypic distance (E57 [7]; 4.1 nM): 0.807
phenotypic distance (E57 [7]; 12.3 nM): 1.04
phenotypic distance (E57 [7]; 37 nM): 0.711
phenotypic distance (E57 [7]; 111.1 nM): 1.62
phenotypic distance (E57 [7]; 333.3 nM): 0.512
phenotypic distance (E57 [7]; 1000 nM): 0.794
phenotypic distance (E57 [7]; 3000 nM): 1.7
surviving fraction (FT3469 [8]; 4.1 nM): 0.874
surviving fraction (FT3469 [8]; 12.3 nM): 0.91
surviving fraction (FT3469 [8]; 37 nM): 1.05
surviving fraction (FT3469 [8]; 111.1 nM): 0.959
surviving fraction (FT3469 [8]; 333.3 nM): 0.939
surviving fraction (FT3469 [8]; 1000 nM): 0.815
surviving fraction (FT3469 [8]; 3000 nM): 0.925
surviving fraction (E31 [9]; 4.1 nM): 1.03
surviving fraction (E31 [9]; 12.3 nM): 0.873
surviving fraction (E31 [9]; 37 nM): 0.879
surviving fraction (E31 [9]; 111.1 nM): 0.922
surviving fraction (E31 [9]; 333.3 nM): 0.967
surviving fraction (E31 [9]; 1000 nM): 0.962
surviving fraction (E31 [9]; 3000 nM): 0.852
surviving fraction (E13 [10]; 4.1 nM): 0.879
surviving fraction (E13 [10]; 12.3 nM): 0.889
surviving fraction (E13 [10]; 37 nM): 0.914
surviving fraction (E13 [10]; 111.1 nM): 0.899
surviving fraction (E13 [10]; 333.3 nM): 0.859
surviving fraction (E13 [10]; 1000 nM): 0.9
surviving fraction (E13 [10]; 3000 nM): 0.93
surviving fraction (E34 [11]; 4.1 nM): 0.923
surviving fraction (E34 [11]; 12.3 nM): 0.923
surviving fraction (E34 [11]; 37 nM): 0.82
surviving fraction (E34 [11]; 111.1 nM): 0.869
surviving fraction (E34 [11]; 333.3 nM): 0.932
surviving fraction (E34 [11]; 1000 nM): 0.863
surviving fraction (E34 [11]; 3000 nM): 0.802
surviving fraction (E21 [12]; 4.1 nM): 0.872
surviving fraction (E21 [12]; 12.3 nM): 0.94
surviving fraction (E21 [12]; 37 nM): 0.885
surviving fraction (E21 [12]; 111.1 nM): 0.958
surviving fraction (E21 [12]; 333.3 nM): 0.998
surviving fraction (E21 [12]; 1000 nM): 1.04
surviving fraction (E21 [12]; 3000 nM): 1.03
surviving fraction (E28 [13]; 4.1 nM): 0.896
surviving fraction (E28 [13]; 12.3 nM): 0.951
surviving fraction (E28 [13]; 37 nM): 0.935
surviving fraction (E28 [13]; 111.1 nM): 0.781
surviving fraction (E28 [13]; 333.3 nM): 0.941
surviving fraction (E28 [13]; 1000 nM): 0.892
surviving fraction (E28 [13]; 3000 nM): 0.877
surviving fraction (E57 [14]; 4.1 nM): 0.935
surviving fraction (E57 [14]; 12.3 nM): 0.844
surviving fraction (E57 [14]; 37 nM): 0.878
surviving fraction (E57 [14]; 111.1 nM): 0.843
surviving fraction (E57 [14]; 333.3 nM): 0.955
surviving fraction (E57 [14]; 1000 nM): 0.911
surviving fraction (E57 [14]; 3000 nM): 0.792
